The values below come from ChEMBL document CHEMBL5316291 (J Med Chem, 2023).

A short description of series [1]: Oral bioavailability in ICR mouse at 10 mg/kg measured upto 24 hrs by LC-MS/MS analysis. The class given is ADME, organism-based. The following applies: in vivo.
Series [2] has as its system CT26. Description: Antitumor activity against mouse CT26 cells implanted in po dosed BALB/c mouse assessed as increase in IFN-beta levels at 100 mg/kg measured after 14 days by RT-qPCR analysis. The format is functional, organism-based. The settings on record: time 14.0 day.
Series [3] has as its target Voltage-gated inwardly rectifying potassium channel KCNH2 (Homo sapiens, UniProt Q12809). Briefly: Inhibition of hERG. The class given is toxicity. (In general: The hERG channel carries a current that helps repolarise heart muscle cells.)
Series [4] is described as follows: AUC(0 to infinity) in ICR mouse at 10 mg/kg, po measured upto 24 hrs by LC-MS/MS analysis. The settings on record: in vivo. Further details: dose 10 mg/kg, time < 24 hrs, route po. The class given is ADME, organism-based.
Series [5] in a line: Clearance in ICR mouse at 1 mg/kg, iv measured upto 24 hrs by LC-MS/MS analysis. The class given is ADME, organism-based. The following applies: in vivo.
Series [6] deals with Protein mono-ADP-ribosyltransferase PARP14 (Homo sapiens, UniProt Q460N5). Description: Inhibition of human recombinant N-terminal 6his-tagged / GST-tagged PARP14 (1470 to 1801 end residues) expressed in baculovirus infected Sf9 cells expression system incubated for 1 hr by ELISA assay. In general terms: An ELISA detects its analyte on a solid surface through an enzyme-linked reagent.

Series [7] concerns CT26. Briefly: Antitumor activity against mouse CT26 cells implanted in BALB/c mouse assessed as increase in infiltration of CD4 positive CD8 positive T lymphocytes in tumors at 50 mg/kg, po measured after 14 days by flow cytometry (reference value: 6.67%). The class given is functional. The settings on record: time 14 day. A general note: A flow cytometer gives signals particle by particle.

Series [8] concerns CT26. Briefly: Antitumor activity against mouse CT26 cells implanted in BALB/c mouse assessed as tumor cell contraction at 25 to 100 mg/kg, po bid measured for 14 days by hematoxylin and eosin staining based fluorescence microscopic analysis. The following applies: dose 25-100 mg/kg, time 14.0 day. The format is functional, organism-based.
For series [9], the target named is T1, Poly [ADP-ribose] polymerase tankyrase-2 (Homo sapiens, UniProt Q9H2K2).
T1 sequence (Q9H2K2 whole entry): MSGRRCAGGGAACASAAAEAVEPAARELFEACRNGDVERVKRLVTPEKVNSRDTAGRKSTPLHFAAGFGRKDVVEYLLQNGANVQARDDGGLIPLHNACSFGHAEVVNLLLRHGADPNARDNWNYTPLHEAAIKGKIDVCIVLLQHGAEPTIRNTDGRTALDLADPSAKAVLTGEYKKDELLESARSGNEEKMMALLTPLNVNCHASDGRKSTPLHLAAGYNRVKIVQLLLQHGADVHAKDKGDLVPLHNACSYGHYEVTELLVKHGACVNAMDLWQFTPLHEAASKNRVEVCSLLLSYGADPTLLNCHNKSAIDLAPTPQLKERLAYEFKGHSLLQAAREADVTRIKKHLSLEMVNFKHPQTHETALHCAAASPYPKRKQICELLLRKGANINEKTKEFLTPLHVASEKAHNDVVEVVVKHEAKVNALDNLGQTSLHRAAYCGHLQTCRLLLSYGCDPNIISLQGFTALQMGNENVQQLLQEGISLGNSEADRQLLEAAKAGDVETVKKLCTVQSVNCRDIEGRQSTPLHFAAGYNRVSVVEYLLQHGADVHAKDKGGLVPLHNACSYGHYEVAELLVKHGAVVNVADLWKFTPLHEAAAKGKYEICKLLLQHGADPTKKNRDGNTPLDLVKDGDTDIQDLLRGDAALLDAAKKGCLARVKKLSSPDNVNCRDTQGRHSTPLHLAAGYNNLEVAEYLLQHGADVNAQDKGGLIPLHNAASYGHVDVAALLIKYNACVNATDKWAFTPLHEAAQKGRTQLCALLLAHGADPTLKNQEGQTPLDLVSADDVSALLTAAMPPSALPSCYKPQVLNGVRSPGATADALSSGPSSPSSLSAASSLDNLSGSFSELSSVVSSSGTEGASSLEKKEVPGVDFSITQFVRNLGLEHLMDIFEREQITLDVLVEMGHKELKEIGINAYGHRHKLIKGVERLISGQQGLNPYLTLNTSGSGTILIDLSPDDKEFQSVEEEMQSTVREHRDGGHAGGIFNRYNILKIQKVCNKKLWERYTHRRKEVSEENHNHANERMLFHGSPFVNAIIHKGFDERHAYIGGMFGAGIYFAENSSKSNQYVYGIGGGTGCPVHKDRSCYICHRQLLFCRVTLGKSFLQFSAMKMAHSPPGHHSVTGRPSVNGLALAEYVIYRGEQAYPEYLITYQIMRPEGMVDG
Description: Inhibition of human recombinant N-terminal GST-tagged PARP5b (667 to 1166 end residues) expressed in baculovirus infected Sf9 cells expression system incubated for 1 hr by ELISA assay.

Series [10] concerns CT26. Description: Antitumor activity against mouse CT26 cells implanted in BALB/c mouse assessed as tumor cell agglutination at 25 to 100 mg/kg, po bid measured for 14 days by hematoxylin and eosin staining based fluorescence microscopic analysis. The class given is functional, organism-based. The settings on record: dose 25-100 mg/kg, time 14.0 day.
For series [11], the system named is CT26. Briefly: Antitumor activity against mouse CT26 cells implanted in immunodeficient BALB/c mouse at 100 mg/kg, po bid measured for 10 days. The class given is functional, organism-based. The following applies: time 10.0 day.
The test system of series [12] is CT26. Description: Antitumor activity against mouse CT26 cells xenografted in BALB/c mouse assessed as tumor growth inhibition at 25 mg/kg, po bid measured for 14 days. The settings on record: CT26, 336 h, time 14 day, read-out: TGI. The format is functional.
The target in series [13] is T2, Protein mono-ADP-ribosyltransferase TIPARP (Homo sapiens, UniProt Q7Z3E1).
T2 sequence (Q7Z3E1 whole entry): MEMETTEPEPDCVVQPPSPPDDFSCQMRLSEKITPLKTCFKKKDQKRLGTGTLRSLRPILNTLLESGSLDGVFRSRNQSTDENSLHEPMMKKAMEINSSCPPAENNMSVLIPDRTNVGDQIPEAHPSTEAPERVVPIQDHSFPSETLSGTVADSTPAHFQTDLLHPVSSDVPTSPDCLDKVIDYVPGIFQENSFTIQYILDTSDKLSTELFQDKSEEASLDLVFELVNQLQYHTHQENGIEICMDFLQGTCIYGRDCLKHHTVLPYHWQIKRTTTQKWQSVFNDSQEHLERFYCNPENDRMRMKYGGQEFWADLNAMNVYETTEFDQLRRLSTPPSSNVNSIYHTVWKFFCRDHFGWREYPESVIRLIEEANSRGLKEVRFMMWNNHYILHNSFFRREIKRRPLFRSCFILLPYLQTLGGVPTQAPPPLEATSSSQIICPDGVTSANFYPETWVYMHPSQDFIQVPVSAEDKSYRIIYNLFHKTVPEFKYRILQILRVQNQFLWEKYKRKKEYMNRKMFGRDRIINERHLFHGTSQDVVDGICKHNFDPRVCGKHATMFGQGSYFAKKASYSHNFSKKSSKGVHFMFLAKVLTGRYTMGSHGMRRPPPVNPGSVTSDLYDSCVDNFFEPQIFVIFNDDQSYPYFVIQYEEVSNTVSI
Description: Inhibition of human recombinant N-terminal FLAG tagged PARP7 (400 to 657 end residues) incubated for 1 hr by ELISA assay.

A short description of series [14]: Toxicity in BALB/c mouse implanted with mouse CT26 cells assessed as kidney damage at 100 mg/kg, po measured for 14 days by hematoxylin and eosin staining based fluorescence microscopic analysis. The following applies: in vivo, 336 h, time 14 day. The class given is organism-based.

The source made the active and inactive calls. The calls are words filed in the database; no cut-off is given here.

Sequence of Voltage-gated inwardly rectifying potassium channel KCNH2 (Q12809 whole entry): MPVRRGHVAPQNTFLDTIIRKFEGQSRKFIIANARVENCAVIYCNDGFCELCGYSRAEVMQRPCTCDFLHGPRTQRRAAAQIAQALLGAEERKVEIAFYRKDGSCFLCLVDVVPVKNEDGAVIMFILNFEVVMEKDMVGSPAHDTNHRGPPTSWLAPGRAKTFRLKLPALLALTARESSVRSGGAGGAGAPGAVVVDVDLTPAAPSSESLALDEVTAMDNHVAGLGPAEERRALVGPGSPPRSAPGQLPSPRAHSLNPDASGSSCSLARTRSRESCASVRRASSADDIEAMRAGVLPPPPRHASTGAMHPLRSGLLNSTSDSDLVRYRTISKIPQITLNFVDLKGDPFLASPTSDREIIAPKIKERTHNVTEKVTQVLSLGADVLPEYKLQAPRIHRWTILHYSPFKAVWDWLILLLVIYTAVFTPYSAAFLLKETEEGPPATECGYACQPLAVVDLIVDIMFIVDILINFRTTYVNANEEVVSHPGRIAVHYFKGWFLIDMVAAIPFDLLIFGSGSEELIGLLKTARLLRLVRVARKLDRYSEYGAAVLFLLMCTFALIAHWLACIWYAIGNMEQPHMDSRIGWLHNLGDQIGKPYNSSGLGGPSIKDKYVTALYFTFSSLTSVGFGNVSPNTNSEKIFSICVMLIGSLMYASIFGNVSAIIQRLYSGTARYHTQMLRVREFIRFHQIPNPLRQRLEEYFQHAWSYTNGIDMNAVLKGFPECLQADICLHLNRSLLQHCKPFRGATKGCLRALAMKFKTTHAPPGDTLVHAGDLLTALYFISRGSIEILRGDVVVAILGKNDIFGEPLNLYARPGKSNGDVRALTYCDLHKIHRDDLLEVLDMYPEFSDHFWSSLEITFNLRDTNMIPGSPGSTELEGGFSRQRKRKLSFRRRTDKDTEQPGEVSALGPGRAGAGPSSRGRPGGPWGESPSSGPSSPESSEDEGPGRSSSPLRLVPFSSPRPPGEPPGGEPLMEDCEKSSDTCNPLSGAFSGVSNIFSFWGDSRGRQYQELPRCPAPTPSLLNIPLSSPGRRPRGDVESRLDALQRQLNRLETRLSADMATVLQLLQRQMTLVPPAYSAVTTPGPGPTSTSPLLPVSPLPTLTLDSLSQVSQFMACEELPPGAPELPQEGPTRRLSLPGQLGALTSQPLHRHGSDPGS
Sequence of Protein mono-ADP-ribosyltransferase PARP14 (Q460N5 whole entry): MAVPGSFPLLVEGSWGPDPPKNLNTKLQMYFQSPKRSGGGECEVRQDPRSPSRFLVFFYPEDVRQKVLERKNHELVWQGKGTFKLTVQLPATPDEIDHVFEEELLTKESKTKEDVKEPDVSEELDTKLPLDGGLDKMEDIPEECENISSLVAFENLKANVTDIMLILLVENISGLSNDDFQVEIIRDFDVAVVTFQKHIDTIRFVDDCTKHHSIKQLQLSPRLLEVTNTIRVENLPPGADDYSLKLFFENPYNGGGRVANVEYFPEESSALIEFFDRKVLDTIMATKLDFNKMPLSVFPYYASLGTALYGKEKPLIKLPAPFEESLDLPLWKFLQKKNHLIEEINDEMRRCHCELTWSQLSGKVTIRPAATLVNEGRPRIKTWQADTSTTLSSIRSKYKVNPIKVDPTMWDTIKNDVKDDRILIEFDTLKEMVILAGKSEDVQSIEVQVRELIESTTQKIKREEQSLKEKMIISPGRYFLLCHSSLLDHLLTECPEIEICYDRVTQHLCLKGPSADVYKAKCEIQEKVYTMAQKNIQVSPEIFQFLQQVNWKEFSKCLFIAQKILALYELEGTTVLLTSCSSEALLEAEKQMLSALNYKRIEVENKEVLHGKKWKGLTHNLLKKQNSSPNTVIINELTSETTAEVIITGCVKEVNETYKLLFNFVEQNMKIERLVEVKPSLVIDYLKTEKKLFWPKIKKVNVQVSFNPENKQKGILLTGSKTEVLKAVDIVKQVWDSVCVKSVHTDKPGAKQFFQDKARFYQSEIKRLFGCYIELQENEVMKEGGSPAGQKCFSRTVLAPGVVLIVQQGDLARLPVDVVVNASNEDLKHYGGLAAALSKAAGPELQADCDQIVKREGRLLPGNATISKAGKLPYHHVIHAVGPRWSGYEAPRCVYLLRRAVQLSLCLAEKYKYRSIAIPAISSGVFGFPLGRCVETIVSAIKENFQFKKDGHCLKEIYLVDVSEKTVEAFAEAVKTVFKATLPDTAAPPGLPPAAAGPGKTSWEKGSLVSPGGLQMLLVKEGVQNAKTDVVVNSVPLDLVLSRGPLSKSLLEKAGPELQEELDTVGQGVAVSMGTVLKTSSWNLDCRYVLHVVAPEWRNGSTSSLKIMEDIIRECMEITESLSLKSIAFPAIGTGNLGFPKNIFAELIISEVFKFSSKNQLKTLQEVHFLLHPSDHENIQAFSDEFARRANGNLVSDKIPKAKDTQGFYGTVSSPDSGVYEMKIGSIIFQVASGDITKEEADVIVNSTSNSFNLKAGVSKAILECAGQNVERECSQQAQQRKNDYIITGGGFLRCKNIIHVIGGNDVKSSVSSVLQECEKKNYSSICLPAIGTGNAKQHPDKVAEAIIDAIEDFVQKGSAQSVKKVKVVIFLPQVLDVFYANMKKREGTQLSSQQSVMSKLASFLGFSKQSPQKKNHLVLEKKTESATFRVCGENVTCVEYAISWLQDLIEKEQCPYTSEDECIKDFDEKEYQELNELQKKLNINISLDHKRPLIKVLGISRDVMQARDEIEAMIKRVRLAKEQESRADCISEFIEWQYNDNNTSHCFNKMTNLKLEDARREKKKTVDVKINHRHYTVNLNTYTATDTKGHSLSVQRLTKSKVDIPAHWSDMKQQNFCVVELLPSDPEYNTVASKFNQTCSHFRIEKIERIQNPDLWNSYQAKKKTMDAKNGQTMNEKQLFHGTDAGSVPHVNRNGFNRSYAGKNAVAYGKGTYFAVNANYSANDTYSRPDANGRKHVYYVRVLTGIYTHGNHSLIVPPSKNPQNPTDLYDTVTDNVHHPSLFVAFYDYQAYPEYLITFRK

For `C[C@@H](CN1CC(C(=O)N2CCN(c3ncc(C(F)(F)F)cn3)CC2)C1)Nc1cn[nH]c(=O)c1C(F)(F)F`, in [1], the bioavailability was found to be 95.8%. In addition, the result with CT26 [2], with CT26 [8] and with CT26 [10] was Active. Besides, in series [3], the “inhibition (INH)” value was “Not Active”. Moreover, the AUC in [4] came out at 5.6635 µg·h/mL. For the same molecule, the clearance in series [5] is 1.74 L/h/kg. The IC50 in [6] was determined as 2.17 µM; in series [9], 0.227 µM; in series [13], 0.0076 µM. In addition, the Activity in the series with CT26 [7] is given as 26.6%; in series [14], “Non-Toxic”. Moreover, the result in the series on CT26 [11] was inactive. The inhibition in vivo at 25 mg/kg in the series with CT26 [12] amounted to 39%.

A word on the bioavailability: it is the share of a dose that reaches the circulation, judged against a reference dose that is usually intravenous. Read a low bioavailability as poor availability. As a reminder, the AUC is concentration integrated over time. A lower AUC goes with less exposure. As a reminder, the clearance is the volume of plasma or blood freed of the substance per unit of time. One may read the IC50 as the concentration that gives 50% inhibition.
